Assay results from paper PMC7248394 (Frontiers in Chemistry, 2020).
Entries after “also recorded” stand apart in the source; their conditions may differ. Residues, ends and D or L forms follow the SMILES beside them. *: point of attachment. 5FAM = O=C1OC2(c3ccc(O)cc3Oc3cc(O)ccc32)c2ccc(C(=O)*)cc21

What was measured:
[1] = target: T1, IN1−288 F185K/C250S (HIV-1 integrase) (Human immunodeficiency virus type 1 group M subtype B, UniProt P12497, C1427S/F1332K); assay: Fluorescence anisotropy binding of fluorescein-labeled IN181−188 peptides to IN; conditions: for Hill coefficient (n): fluorescence anisotropy, IN titrated into 100 nM fluorescein-labeled peptide, 10°C, ionic strength 1 M (NaCl), fit to Hill equation
T1 construct: we first expressed and purified IN1−288 F185K/C250S as previously described; made in house
Experimental: To test the activity of the cyclic peptide-peptoid hybrids, we first expressed and purified IN1−288 F185K/C250S as previously described (Gabizon et al., [2013]). The double mutant protein was used since it has similar activity as the wild-type but higher solubility (Jenkins et al., [1996]). […] The Hill coefficient for all the cyclic peptides was approximately 4, indicating cooperative binding of the peptides to tetrameric IN.
IN was titrated into a solution of 100 nM fluorescein labeled (Fl) IN181−188 cyclic peptides and into linear IN181−188, which served as a control. Anisotropy measurements were performed generally as described (Friedler et al., [2002]) at 10°C with ionic strength of 1 M (adjusted by NaCl) and the binding curves were fit to the Hill equation (Figure 8, Table 1).

trypsin = assay: 7 μL of 8 μM trypsin added to peptide in 360 μL of HEPES 20 mM pH = 7.5; conditions: 37 °C, up to about 30 h

| Compound | Kd [1] [µM] | Hill coefficient (n) [1] | fragment found (trypsin) |
| --- | --- | --- | --- |
| CC[C@H](C)[C@H](NC(=O)[C@H](Cc1ccccc1)NC(=O)CNC(=O)[C@H](Cc1c[nH]c2ccccc12)NC(=O)c1ccc2c(c1)C(=O)OC21c2ccc(O)cc2Oc2cc(O)ccc21)C(=O)N[C@@H](Cc1c[nH]cn1)C(=O)N[C@@H](CC(N)=O)C(=O)N[C@@H](Cc1ccccc1)C(=O)N[C@@H](CCCCN)C(=O)N[C@@H](CCCNC(=N)N)C(=O)N[C@@H](CCCCN)C(=O)NCC(N)=O [Fl-WT IN181−188, reference compound] (5FAM-WGFIHNFKRKG-NH2; N-terminus assumed) | 7.6 ± 0.2 | 3.6 ± 0.4 | – |
| CC[C@H](C)[C@@H]1NC(=O)[C@H](Cc2ccccc2)NC(=O)CN(C(=O)[C@H](Cc2c[nH]c3ccccc23)NC(=O)c2ccc3c(c2)C(=O)OC32c3ccc(O)cc3Oc3cc(O)ccc32)Cc2cn(nn2)CCN(CC(N)=O)C(=O)[C@H](CCCCN)NC(=O)[C@H](CCCNC(=N)N)NC(=O)[C@H](CCCCN)NC(=O)[C@H](Cc2ccccc2)NC(=O)[C@H](CC(N)=O)NC(=O)[C@H](Cc2c[nH]cn2)NC1=O [Fl-C-4] | 7 ± 0.2 | 2.5 ± 0.2 | – |
| H2N-W-G(N-alkyl)-F-I-H-N-F-K-R-K-G(N-alkyl)-NH2, the two N-alkyl groups joined by a triazole bridge (n=3, R=H) | – | – | digested C-2 (C-2 + 18 Da, addition of water) |
| CC[C@H](C)[C@@H]1NC(=O)[C@H](Cc2ccccc2)NC(=O)CN(C(=O)[C@H](Cc2c[nH]c3ccccc23)NC(=O)c2ccc3c(c2)C(=O)OC32c3ccc(O)cc3Oc3cc(O)ccc32)Cc2cn(nn2)CCCN(CC(N)=O)C(=O)[C@H](CCCCN)NC(=O)[C@H](CCCNC(=N)N)NC(=O)[C@H](CCCCN)NC(=O)[C@H](Cc2ccccc2)NC(=O)[C@H](CC(N)=O)NC(=O)[C@H](Cc2c[nH]cn2)NC1=O [Fl-C-2] | 9 ± 0.2 | 3.8 ± 0.3 | – |
| CC[C@H](C)[C@@H]1NC(=O)[C@H](Cc2ccccc2)NC(=O)CN(C(=O)[C@H](Cc2c[nH]c3ccccc23)NC(=O)c2ccc3c(c2)C(=O)OC32c3ccc(O)cc3Oc3cc(O)ccc32)CCCn2cc(nn2)CN(CC(N)=O)C(=O)[C@H](CCCCN)NC(=O)[C@H](CCCNC(=N)N)NC(=O)[C@H](CCCCN)NC(=O)[C@H](Cc2ccccc2)NC(=O)[C@H](CC(N)=O)NC(=O)[C@H](Cc2c[nH]cn2)NC1=O [Fl-C-1] | 8.1 ± 0.2 | 3.8 ± 0.4 | – |
| CC[C@H](C)[C@@H]1NC(=O)[C@H](Cc2ccccc2)NC(=O)CN(C(=O)[C@H](Cc2c[nH]c3ccccc23)NC(=O)c2ccc3c(c2)C(=O)OC32c3ccc(O)cc3Oc3cc(O)ccc32)CCn2cc(nn2)CN(CC(N)=O)C(=O)[C@H](CCCCN)NC(=O)[C@H](CCCNC(=N)N)NC(=O)[C@H](CCCCN)NC(=O)[C@H](Cc2ccccc2)NC(=O)[C@H](CC(N)=O)NC(=O)[C@H](Cc2c[nH]cn2)NC1=O [Fl-C-3] | 7.7 ± 0.5 | 2.8 ± 0.5 | – |
| H2N-W-G(N-propargyl)-F-I-H-N-F-K-R-K-G(N-(CH2)3-N3)-NH2 | – | – | G(N-propargyl)FIHNFKR, major; also recorded: G(N-propargyl)FIHNFK |
